Here are results for eight compounds from PubChem BioAssay (NCI).

Where “and” joins values, the source holds several entries; their conditions need not be identical. Identical values can stand only once.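 A five-concentration, 48-hour dose response in 96-well plates underlies each endpoint, interpolated linearly between surrounding concentrations. GI50 marks 50% less growth. TGI: concentration producing complete growth inhibition.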

Some test systems named below: A498 renal; BT-549 breast; DU-145 prostate; HOP-92 NSCLC; MALME-3M melanoma; NCI-H226 lung; NCI-H23 lung; SK-MEL-2 melanoma; SR leukemia; U251 CNS.
Holding throughout (experiment): DTP human tumour cell line panel, 48 h

For orientation: GI50 means the concentration at which growth is held to half of that of the control. In general, TGI refers to the concentration giving total growth inhibition. `O=C(Cc1ccc(F)c(Cl)c1)Nc1cc(C2(C(F)(F)F)CC2)nn1CC1CCCCC1`: the GI50 in the assay on A498 renal is 1.52 µM; with BT-549 breast it was 3.41 µM; in the assay with DU-145 prostate, 5.39 µM; in the assay with HOP-92 NSCLC, 2.69 µM; in the assay on MALME-3M melanoma, 2.7 µM; in the assay on NCI-H226 lung it was 4.32 µM. Also, the GI50 is 3.52 µM in the assay with NCI-H23 lung, 3.99 µM with SK-MEL-2 melanoma, 3.73 µM with SR leukemia and 5.13 µM in the assay on U251 CNS. For the same compound, the TGI with A498 renal is 4.89 µM; in the assay with BT-549 breast, 14.7 µM; in the assay with DU-145 prostate, above 15 µM; with HOP-92 NSCLC it was 10.7 µM; with MALME-3M melanoma, 8.06 µM; with NCI-H226 lung, above 15 µM. For the same compound, the TGI in the assay with NCI-H23 lung was 12 µM; in the assay with SK-MEL-2 melanoma, 13.3 µM; in the assay with SR leukemia it was 11.4 µM; in the assay on U251 CNS, above 15 µM.
As for `COc1ccc2nc3ccccc3c(NCc3ccc(F)cc3)c2c1`, the GI50 in the assay with A498 renal was 1.62 µM; with BT-549 breast, 4.75 µM; in the assay with DU-145 prostate, 2.09 µM; in the assay with HOP-92 NSCLC, 1.39 µM; in the assay with MALME-3M melanoma it was 1.46 µM; with NCI-H226 lung, 1.81 µM. The GI50 in the assay with NCI-H23 lung is 1.89 µM; in the assay with SK-MEL-2 melanoma it was 3.19 µM; in the assay with SR leukemia it was 1.79 µM; in the assay on U251 CNS, 1.94 µM. In addition, the TGI in the assay with A498 renal worked out at 5.74 µM; in the assay on BT-549 breast, 11.4 µM; in the assay on DU-145 prostate, 7.04 µM; with HOP-92 NSCLC it was 6.6 µM; with MALME-3M melanoma, 5.38 µM; with NCI-H226 lung it was 9.28 µM. The TGI was determined as 8.46 µM in the assay on NCI-H23 lung, 10.4 µM in the assay on SK-MEL-2 melanoma, 5.75 µM in the assay with SR leukemia and 7.82 µM in the assay with U251 CNS.
Consider `NNC(=O)CNc1cccc(Br)c1`, for which the TGI with A498 renal, with BT-549 breast, in the assay on DU-145 prostate, in the assay on HOP-92 NSCLC, in the assay with MALME-3M melanoma and in the assay on NCI-H226 lung was above 100 µM in each case. Besides, the TGI in the assay with NCI-H23 lung, with SK-MEL-2 melanoma, with SR leukemia and in the assay with U251 CNS was above 100 µM throughout.
For the compound `O=C(Nc1cc(C(F)(F)F)cc(C(F)(F)F)c1)c1cc(Cl)ccc1O`, the GI50 in the assay with A498 renal was 0.045 µM and < 0.0141 µM; in the assay with BT-549 breast, 0.206 µM and 0.213 µM; with DU-145 prostate, 0.345 µM and 0.347 µM; in the assay on HOP-92 NSCLC, 0.12 µM and 0.0412 µM; in the assay with MALME-3M melanoma it was 0.225 µM and 0.2 µM; in the assay with NCI-H226 lung, 0.262 µM and 0.317 µM. The 50% growth inhibitory concentration (GI50) in the assay on NCI-H23 lung was 0.218 µM and 0.263 µM; in the assay with SK-MEL-2 melanoma, 0.209 µM and 0.206 µM; in the assay on SR leukemia, 0.218 µM and 0.228 µM; in the assay on U251 CNS, 0.234 µM and 0.228 µM. Besides, the TGI in the assay on A498 renal was 0.241 µM and 0.178 µM; in the assay with BT-549 breast, 0.714 µM and 0.712 µM; in the assay with DU-145 prostate it was > 5.23 µM and 10.8 µM; in the assay on HOP-92 NSCLC, 0.418 µM and 0.304 µM; in the assay with MALME-3M melanoma, 1.16 µM and 0.668 µM; in the assay with NCI-H226 lung, 0.992 µM and 1.59 µM. The TGI in the assay with NCI-H23 lung is 0.754 µM and 1.34 µM; in the assay with SK-MEL-2 melanoma it was 0.589 µM and 0.981 µM; in the assay on U251 CNS, > 9.5 µM and 7.9 µM.
Turning to `COc1ccc(-c2ccc(=O)oc2C#Cc2cc(OC)c(OC)c(OC)c2)cc1O`, the GI50 in the assay on A498 renal was 2.36 µM; in the assay on BT-549 breast, 0.275 µM; in the assay with DU-145 prostate it was 0.248 µM; in the assay with HOP-92 NSCLC, 0.999 µM; in the assay with MALME-3M melanoma, 2.66 µM; in the assay with NCI-H226 lung, 1.42 µM. For the same compound, the GI50 in the assay with NCI-H23 lung was 1.17 µM; in the assay with SK-MEL-2 melanoma it was 1.31 µM; with SR leukemia, 0.0708 µM; in the assay with U251 CNS, 0.358 µM. For the same compound, the TGI in the assay with A498 renal is 24.9 µM; with BT-549 breast it was 99.2 µM; with DU-145 prostate it was 1.54 µM; in the assay with HOP-92 NSCLC it was 9.87 µM; with MALME-3M melanoma, above 92.6 µM; in the assay with NCI-H226 lung, above 100 µM. The TGI with NCI-H23 lung is above 100 µM; in the assay on SK-MEL-2 melanoma it was above 22.1 µM; in the assay with SR leukemia, above 100 µM; in the assay with U251 CNS it was 4.58 µM.
For the compound `CCCC(=O)Nc1cn(COC)c(C(=O)N2C[C@@H]3C[C@]34C2=CC(=O)c2[nH]cc(C)c24)n1`, the TGI is 18.2 µM in the assay on A498 renal; 24.7 µM and 21.7 µM with BT-549 breast; 12.7 µM and > 100 µM with DU-145 prostate; 20.6 µM and 18.2 µM with HOP-92 NSCLC; 6.66 µM with MALME-3M melanoma; 34.1 µM in the assay with NCI-H226 lung. Also, the TGI in the assay with NCI-H23 lung was 14.7 µM and 6.4 µM; with SK-MEL-2 melanoma, 27.3 µM and 9.29 µM; in the assay with SR leukemia, 0.488 µM; in the assay on U251 CNS it was 50 µM and 21.1 µM. The GI50 was 3.99 µM with DU-145 prostate, 5.51 µM with HOP-92 NSCLC, 2.98 µM in the assay on SK-MEL-2 melanoma and 4.93 µM in the assay on U251 CNS.
For the compound `COc1cc(N=Nc2ccc(O)c3ncccc23)c2ncccc2c1`, the GI50 with A498 renal is 24.2 µM; in the assay with BT-549 breast, 4.31 µM; in the assay on DU-145 prostate it was 4.06 µM; with HOP-92 NSCLC, 1.97 µM; in the assay with MALME-3M melanoma, 4.03 µM; in the assay with NCI-H226 lung it was 6.07 µM. Besides, the GI50 in the assay on NCI-H23 lung is 3.75 µM; with SK-MEL-2 melanoma, 8.4 µM; in the assay on SR leukemia, 2.2 µM; in the assay on U251 CNS, 3.43 µM. The TGI is 93.5 µM in the assay on A498 renal; above 100 µM in the assay on BT-549 breast; above 100 µM with DU-145 prostate; above 100 µM in the assay with HOP-92 NSCLC; 33.7 µM with MALME-3M melanoma; above 100 µM in the assay with NCI-H226 lung. For the same compound, the TGI with NCI-H23 lung, in the assay with SK-MEL-2 melanoma, in the assay with SR leukemia and in the assay with U251 CNS was above 100 µM each time.
Turning to `CN1C(=O)c2ccccc2NC(=O)C12O[C@@H]2c1ccccc1` (some centres not stated), the total growth inhibition concentration (TGI) with A498 renal, with BT-549 breast, in the assay on DU-145 prostate, with HOP-92 NSCLC, in the assay with MALME-3M melanoma and in the assay with NCI-H23 lung was above 100 µM each time. Further, the TGI with SK-MEL-2 melanoma, in the assay on SR leukemia and with U251 CNS was above 100 µM throughout.
